We go through four compounds from patent US20100041662A1, “Heterocyclic compounds as antiinflammatory agents” (priority 2006, published 2010).

Series [1] deals with Phospho-PKB in U87MG cells. The experiment in a line: Detection of phospho-PKB in U87MG cells by ELISA. Format: cell-based. Particulars: Homo sapiens, U-87 MG; assay not given; follows the PI3K/DNA-PK/phospho-PKB U87MG methods. Here is the method: U87MG cells (human glioblastoma, ATCC No. HTB-14) are trypsinized, counted in a CASY cell counter (Schärffe systems, Göttingen, Germany), diluted in fresh complete DMEM high glucose medium to load, per well, 150 μL cell suspension containing 4×10^4 cells, and test plates incubated for 18 hours. In parallel, 50 μL of coating antibody, at the desired concentration in PBS/O is loaded in each well of the ELISA plates, and plates are kept for 2 hours at room temperature. This ELISA assays is performed in black flat-bottom 96-well plates (Microtest™, Falcon Becton-Dickinson, Ref.: 353941) sealed with Plate Sealers (Costar-Corning, Ref: 3095). Medium in plates is discarded and replaced by complete DMEM high glucose medium containing either 0.1% DMSO or 0.1% inhibitor at titers (7) between […] in DMSO. After 30 minutes of contact, the medium is quickly removed by aspiration, plates are then placed on ice and immediately cells lyzed with 70 μL of Lysis buffer. In parallel, the 96 wells plates prepared with the coating antibody (1/250 diluted (in PBS/O) Anti-Akt1 C-20, goat, Santa-Cruz-1618, Santa Cruz Biotechnology, Inc., Santa Cruz, Calif., USA) are washed 3 times for 1 minute with PBS/O containing 0.05% Tween 20 and 0.1% Top-Blocks (derivative of gelatine that blocks unspecific binding sites on surfaces; Sigma-Aldrich, Fluka, Buchs, Switzerland, Ref.: 37766), and remaining protein binding sites blocked to prevent non-specific interactions with 200 μL of PBS containing 3% Top Block®, for 2 hours at room temperature. Well content is replaced with 50 μL of samples from treated cells, and plates are incubated for 3 hours at 4° C. The ELISA assays are always done in parallel with the following controls, in 6 replicates: U87MG (untreated control) or Lysis buffer alone (LB). […] The luminescence is read immediately on a Top-Count NXT (Packard Bioscience) luminometer.
In general terms: In an ELISA, binding on a coated surface is turned into a signal by an enzyme label.

Series [2] concerns dimethylnitrosamine induced liver fibrosis. Particulars: cited from earlier work.
[3] abbreviates: given therapeutically to rat, 3 weeks treatment.

pIC50: −log10 of the molar value.

Regarding `OC1CCC(Nc2ccc3ncc(-c4ccc(-n5cccn5)cc4)n3n2)CC1` (stereo not drawn) [Example 1.5, 4-[3-(4-Pyrazol-1-yl-phenyl)-imidazo[1,2-b]pyridazin-6-ylamino]-cyclohexanol], the negative logarithm of the IC50 (pIC50) (usually −log10 of the IC50, conventionally taken in molar units) in series [1] is 6.97.
Take `OC1CCC(Nc2ccc3ncc(-c4ccc(-n5cncn5)cc4)n3n2)CC1` (stereo not drawn) [Example 1.8, 4-[3-(4-[1,2,4]Triazol-1-yl-phenyl)-imidazo[1,2-b]pyridazin-6-ylamino]-cyclohexanol]: in series [1], the pIC50 is 6.18.
In turn, `OCC1CCC(Nc2ccc3ncc(-c4ccc(-n5cccn5)cc4)n3n2)CC1` (stereo not drawn) [Example 1.9, {4-[3-(4-Pyrazol-1-yl-phenyl)-imidazo[1,2-b]pyridazin-6-ylamino]-cyclohexyl}-methanol] showed a negative-log IC50 (pIC50) in series [1] of 6.12. This pIC50 and that of the compound before are within 0.2 log units of each other.
`c1ccc(-c2cc(-c3cn[nH]c3-c3ccccn3)ccn2)cc1` [GW6604]: the side effects result in series [2] (during the 3 weeks treatment) is reported as “no obvious side effects”. Also, in series [2] (setting [3]), the “inhibited extracellular matrix deposition” value is reported as 60% and the prevented death rate is listed as 40%.
